# The source made the active and inactive calls. No cut-off for these calls is given here.
# What was measured:
# [1] = test system: 786-0; experiment: Antiproliferative activity against MDR-1 overexpressing human 786-0 cells; type: functional, cell-based
# [2] = test system: 786-0; experiment: Antiproliferative activity against MDR-1 overexpressing human 786-0 cells in presence of MDR1 inhibitor verapamil; type: functional, cell-based
# [3] = test system: HUVEC; experiment: Antiproliferative activity against HUVEC grown in absence of growth factors after 48 hrs by spectrophotometry; type: functional, cell-based; settings: Homo sapiens
# [4] = test system: HUVEC; experiment: Antiproliferative activity against HUVEC grown in presence of growth factors after 48 hrs by spectrophotometry; type: functional, cell-based; settings: Homo sapiens
# [5] = test system: MCF7; experiment: Antiproliferative activity against human MCF7 cells assessed after 48 hrs by spectrophotometry; type: functional, cell-based; settings: MCF7, 48 h
# [6] = Inhibition of tubulin polymerization by spectrophotometry
# [7] = test system: HUVEC; experiment: Selectivity ratio of IC50 for HUVEC grown in absence of growth factors to IC50 for HUVEC grown in presence of growth factors; type: functional, Homo sapiens
# [8] = test system: MDA-MB-231; experiment: Antitumor activity against human MDA-MB-231 xenografted in mouse assessed as tumor growth inhibition at 150 mg/kg administered on day 1 and 5; type: functional, organism-based; design: dose 150 mg/kg
# [9] = Aqueous solubility of the compound; type: physicochemical; settings: buffer
# [10] = Antiproliferative activity against human HAAE1 grown in presence of growth factors after 48 hrs by spectrophotometry; type: functional
# [11] = test system: A-375; experiment: Antiproliferative activity against human A375 after 48 hrs by spectrophotometry; type: functional, cell-based; settings: A-375, 48 h
# [12] = test system: MDA-MB-231; experiment: Antiproliferative activity against human MDA-MB-231 after 48 hrs by spectrophotometry; type: functional, cell-based; settings: MDA-MB-231, 48 h
# [13] = Cytotoxicity against human A2780cis cells; type: functional, cell-based; settings: A2780cisR
# [14] = test system: LoVo; experiment: Antiproliferative activity against human LoVo after 48 hrs by spectrophotometry; type: functional, cell-based
# [15] = Antiproliferative activity against human HAAE1 grown in absence of growth factors after 48 hrs by spectrophotometry; type: functional
# [16] = test system: AU565; experiment: Antiproliferative activity against human AU565 after 48 hrs by spectrophotometry; type: functional, cell-based; settings: AU565, 48 h
# [17] = test system: DU-145; experiment: Antiproliferative activity against human DU145 after 48 hrs by spectrophotometry; type: functional, cell-based; settings: DU-145, 48 h
# [18] = Antiproliferative activity against human U87MG after 48 hrs by spectrophotometry; type: functional, U-87MG ATCC; settings: U-87 MG
# [19] = test system: SK-OV-3; experiment: Antiproliferative activity against human SKOV3 after 48 hrs by spectrophotometry; type: functional, cell-based; settings: SK-OV-3, 48 h
# [20] = test system: Rattus norvegicus; experiment: Volume of distribution at steady state in Sprague-Dawley rat at 6 umol/kg, iv; type: ADME, organism-based; settings: in vivo
# [21] = Cytotoxicity against human A2780/ADR cells; type: functional, cell-based
# [22] = test system: BT-549; experiment: Antiproliferative activity against human BT549 after 48 hrs by spectrophotometry; type: functional, cell-based; settings: BT-549, 48 h
# [23] = Drug uptake in tumor of MDA-MB-231 breast cancer BALB/c mouse model at 1 to 150 mg/kg, iv measured after 24 hrs; type: ADME, organism-based; design: dose 1-150 mg/kg, route intravenous; settings: in vivo
# [24] = test system: A2780; experiment: Cytotoxicity against human A2780 cells; type: functional, cell-based
# [25] = test system: Rattus norvegicus; experiment: Half life in Sprague-Dawley rat at 6 umol/kg, iv; type: ADME, organism-based; settings: in vivo
# [26] = test system: Calu-6; experiment: Antiproliferative activity against human Calu6 after 48 hrs by spectrophotometry; type: functional, cell-based; settings: Calu-6, 48 h
# [27] = test system: Plasma; experiment: Plasma protein binding in Sprague-Dawley rat at 6 umol/kg, iv; type: ADME, cell-free
# [28] = test system: A-431; experiment: Antiproliferative activity against human A431 after 48 hrs by spectrophotometry; type: functional, cell-based; settings: A-431, 48 h
# [29] = test system: MDA-MB-231; experiment: Antitumor activity against human MDA-MB-231 xenografted in mouse assessed as tumor growth inhibition at 40 mg/kg administered on day 1 and 8 measured after 70 days; type: functional, organism-based; design: dose 40 mg/kg
# [30] = test system: MDA-MB-231; experiment: Antitumor activity against human MDA-MB-231 xenografted in mouse assessed as tumor growth inhibition at 10 mg/kg administered on day 1 and 5; type: functional, organism-based; design: dose 10 mg/kg
SMILES,IC50 [3] [nM],IC50 ([4]; read-out: IC50) [nM],IC50 [5] [nM],IC50 [6] [nM],Ratio IC50 [7],other results
CC[C@]1(O)C[C@H]2CN(CCc3c([nH]c4ccccc34)[C@@](C(=O)OC)(c3cc4c(cc3OC)N(C=O)[C@H]3[C@@](O)(C(=O)OC)[C@H](OC(C)=O)[C@]5(CC)C=CCN6CC[C@]43[C@@H]65)C2)C1 [VINCRISTINE],,,,,,IC50 [1]: 37 nM; IC50 [2]: 1.2 nM
COc1cc(C(=O)c2coc3c(O)c(OC)ccc23)cc(OC)c1OC,322,83,45,,,
COc1ccc2c(C(=O)c3cc(OC)c(OC)c(OC)c3)c(-c3ccc4c(ccn4C)c3)oc2c1,32,41,,1300,0.8,
COc1cc(C(=O)c2c(-c3cnn(C)c3)oc3c(O)c(OC)ccc23)cc(OC)c1OC,0.7,0.4,1,1300,1.8,
COc1cc(C(=O)c2c(-c3cccs3)oc3c(O)c(OC)ccc23)cc(OC)c1OC,0.36,0.31,0.5,,1.2,
COc1cc(C(=O)c2c(N)oc3c(O)c(OC)ccc23)cc(OC)c1OC,8.8,1.9,,,4.6,
COc1ccc2c(C(=O)c3cc(OC)c(OC)c(OC)c3)c(-c3ccc(OC)nc3)oc2c1,27,45,71,,0.6,
COc1ccc2c(C(=O)c3cc(OC)c(OC)c(OC)c3)c(-c3ccc(OC)c(N)c3)oc2c1,44,32,26,1900,1.4,
CC[C@]1(O)C[C@@H]2CN(CCc3c([nH]c4ccccc34)[C@@](C(=O)OC)(c3cc4c(cc3OC)N(C)[C@H]3[C@@](O)(C(=O)OC)[C@H](OC(C)=O)[C@]5(CC)C=CCN6CC[C@]43[C@@H]65)C2)C1 [VINBLASTINE],,,,,,IC50 [1]: 4.5 nM; IC50 [2]: 0.31 nM
COc1cc(C(=O)c2c(-c3ccco3)oc3c(O)c(OC)ccc23)cc(OC)c1OC,3.4,3.6,0.6,8700,0.9,
COc1ccc2c(C(=O)c3cc(OC)c(OC)c(OC)c3)c(Br)oc2c1,309,510,,,0.6,
COc1cc(C(=O)c2c(-n3cccc3)oc3c(O)c(OC)ccc23)cc(OC)c1OC,3.3,,,,,
COc1ccc2c(C(=O)c3cc(OC)c(OC)c(OC)c3)c(-c3ccc(O)cc3)oc2c1,34,30,48,2300,1.1,
CC(=O)O[C@H]1C(=O)[C@@]2(C)[C@H]([C@H](OC(=O)c3ccccc3)[C@]3(O)C[C@H](OC(=O)[C@H](O)[C@@H](NC(=O)c4ccccc4)c4ccccc4)C(C)=C1C3(C)C)[C@]1(OC(C)=O)CO[C@@H]1C[C@@H]2O [PACLITAXEL],,,,,,IC50 [1]: 31 nM; IC50 [2]: 4 nM
COc1ccc(-c2oc3c(O)c(OC)ccc3c2C(=O)c2cc(OC)c(OC)c(OC)c2)cc1O,3.4,1.7,4,800,2,
COC(=O)/C=C/c1oc2c(O)c(OC)ccc2c1C(=O)c1cc(OC)c(OC)c(OC)c1,2.3,0.38,,,6,
COc1ccc2c(C(=O)c3cc(OC)c(OC)c(OC)c3)c(N3CCN(C)CC3)oc2c1,405,484,215,,0.8,
COc1cc(C(=O)c2c(-c3cnn(C)c3)oc3c(OC(C)C)c(OC)ccc23)cc(OC)c1OC,419,665,42,,0.6,
COc1ccc(-c2sccc2C(=O)c2cc(OC)c(OC)c(OC)c2)cc1O,,,,1000,,
COc1ccc(/C=C\c2cc(OC)c(OC)c(OC)c2)cc1OP(=O)(O)O,,,,,,growth inhibition (GI) [8]: Active
COc1cc(C(=O)c2c(NCCN(C)C)oc3c(O)c(OC)ccc23)cc(OC)c1OC,36,29,,,1.2,
COc1cc(C(=O)c2c(/C=C/C(N)=O)oc3c(O)c(OC)ccc23)cc(OC)c1OC,2.3,2.6,,,0.9,
COc1cc(C(=O)c2c(C#N)oc3c(O)c(OC)ccc23)cc(OC)c1OC,3,1.1,,,2.7,
COc1cc(C(=O)c2c(C)oc3c(O)c(OC)ccc23)cc(OC)c1OC,25,0.31,2.4,3000,,solubility [9]: Insoluble; IC50 [10]: 0.1 nM; IC50 [11]: 1.5 nM; IC50 [12]: 0.63 nM; IC50 [13]: 0.01 nM; IC50 [14]: 0.24 nM; IC50 [15]: 12 nM; IC50 [16]: 5.8 nM; IC50 [17]: 0.36 nM; IC50 [18]: 0.41 nM; IC50 [19]: 0.59 nM; Vdss [20]: 7.1 L/kg; IC50 [21]: 0.06 nM; IC50 [22]: 0.34 nM; Drug uptake [23]: 64%; IC50 [24]: 0.03 nM; t1/2 [25]: 3.5 h; IC50 [26]: 0.16 nM
COc1ccc(/C=C\c2cc(OC)c(OC)c(OC)c2)cc1O [COMBRETASTATIN A4],3.9,,,,,IC50 [4]: 3.6 nM; PPB [27]: 98.9%; IC50 [16]: 4.4 nM; IC50 [17]: 4 nM; Vdss [20]: 7.3 L/kg; IC50 [22]: 3.5 nM; t1/2 [25]: 0.7 h; IC50 [28]: 188 nM; IC50 [26]: 0.94 nM
COc1cc(C(=O)c2c(NCCO)oc3c(O)c(OC)ccc23)cc(OC)c1OC,2.9,3.1,,,0.9,
COc1ccc2c(C(=O)c3cc(OC)c(OC)c(OC)c3)coc2c1,63,45,55,1600,1.4,
COc1cc(C(=O)c2c(C)oc3c(OP(=O)([O-])[O-])c(OC)ccc23)cc(OC)c1OC.[Na+].[Na+],,,,,,solubility [9]: soluble; growth inhibition (GI) [29]: Active; growth inhibition (GI) [30]: Active

# From ChEMBL document CHEMBL1821642, “Discovery of 7-hydroxy-6-methoxy-2-methyl-3-(3,4,5-trimethoxybenzoyl)benzo[b]furan (BNC105), a tubulin polymerization inhibitor with potent antiproliferative and tumor vascular disrupting properties” (J Med Chem, 2011)
